The test system of this assay is AML cell line MV-4-11B. The assay can be described thus: IncuCyte live cell imaging assay: cell growth (confluence) and apoptosis (Caspase-3/7 green fluorescence) over time. Particulars: MV-4-11B cells, single compound treatment, vs DMSO control. The format is cell-based. The protocol: The analysis is done by the Essen BioScience IncuCyte™ FLR live cell imaging system. It enables observation and quantification of cell behavior over time by automatically gathering and analyzing images around the clock. This live-cell, non-perturbating imaging approach yields kinetic data, all generated within the controlled environment of a standard cell incubator.
MV-4-11B is the AML cell line MV-4-11 from ATCC (CRL-9591) which has achieved a mutation in TP53 (c.742C>T, p.R248W, heterozygous for TP53). MV-4-11B cells were grown in T-75 flasks using RPMI1640 medium supplemented with 10% fetal calf serum and 50 μM mercaptoethanol. Cultures were incubated at 37° C. and 5% CO2 in a humidified atmosphere.
For the IncuCyte live cell imaging assays, cells were plated in 96 well plates, Poly-D-Lysine coated, and were incubated with the respective compounds (BET inhibitor 1-12, volasertib), either alone or in combination. For the detection of apoptotic cells, the Essen BioSciences CellPlayer™ 96 well Kinetic Caspase-3/7 Reagent was added.
To determine cell proliferation, “confluence” (area covered with cells in the wells) was used as readout, to determine the amount of apoptosis (dead cells), the intensity of green fluorescence was used as readout.

Structures are written as SMILES.

Turning to `CC[C@@H]1C(=O)N(C)c2cnc(Nc3ccc(C(=O)N[C@H]4CC[C@H](N5CCN(CC6CC6)CC5)CC4)cc3OC)nc2N1C(C)C` [volasertib, N-[trans-4-[4-(cyclopropylmethyl)-1-piperazinyl]cyclohexyl]-4-[[(7R)-7-ethyl-5,6,7,8-tetrahydro-5-methyl-8-(1-methylethyl)-6-oxo-2-pteridinyl]amino]-3-methoxy-benzamide], the “Cell growth (confluence)” value (over time (FIGS. 1-12 a)) is listed as “reduced in comparison to DMSO control treated cells”. Moreover, the “Apoptosis (Caspase-3/7 green fluorescence)” value (over time (FIGS. 1-12 b)) is on record as “increased in comparison to DMSO control treated cells”.

Values taken from patent US20210038602A1, “COMBINATION TREATMENT OF ACUTE MYELOID LEUKEMIA” (Boehringer Ingelheim International GmbH, priority 2018, published 2021).
